Six compounds from publication PMC4912613, “A broad analysis of resistance development in the malaria parasite” (Nature Communications, 2016) can be followed below.

By EC50 is commonly meant the concentration giving half of the maximal effect.

Structures are written as SMILES. Like-named read-outs stand apart in the source and are kept apart here.

Experiment [1] has as its system ProRS (prolyl t-RNA synthetase L482H, parent Dd2). Briefly: Cross-resistance EC50 assay, ProRS. Format: cell-based. The following applies: Plasmodium falciparum; SYBR green 72 hour assay; synchronized parasites; 384-well format; strain ProRS (Dd2 parent). The essentials:
(§1)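 Asexual blood-stage P. falciparum, resistant lines vs parent or 3D7, tested under identical conditions; EC50 from 48-h ^3H-hypoxanthine incorporation (0.5% parasitemia, 2% haematocrit, label added at 24 h) or 72-h SYBR Green (0.3% parasitemia, 4% haematocrit). Fold shift taken against parent; >5-fold flagged.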

Experiment [2] relates to P. falciparum 3D7, Dd2, Dd2Δexo. In words: In vitro evolution of compound-resistant lines (selection). It counts as cell-based, Plasmodium falciparum. The following applies: for Time Length to Obtain Mutants: in vitro selection; for # of Resistant Strains Generated: resistant cultures out of three independent cultures; for EC50 fold shifts observed: selected parasites vs selection parent. The essentials: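 Resistance was selected in triplicate cultures. High-pressure: ~1–2 × 10^9 parasites at 3–10 × EC50, with intermittent or constant pressure. Step-wise: ~1 × 10^8 parasites, dose raised 5–10% to hold 50% growth reduction, until a reproducible >3× EC50 shift. Lines were cloned by limiting dilution; selection ended at 200 days.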

Experiment [3] concerns Stage 5 gametocytes from P. falciparum NF54. Briefly: Late-stage (stage V) gametocyte survival assay, MitoTracker. It counts as cell-based, Plasmodium falciparum. The following applies: for EC50: Plasmodium falciparum, read-out: Stage 5 Gametocyte EC50; for EC50 fold shift compared to asexual stage: Stage 5 Gametocyte EC50: gametocyte EC50 / 3D7 EC50. In short, it runs like this:
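Synchronized P. falciparum NF54 stage V gametocytes were exposed to compound (1.25 μM or 12.5 μM) for 72 h. MitoTracker Red CMXRos (500 nM final) was then added with saponin to lyse RBCs, and plates were imaged by high-content fluorescence. The readout was the number of metabolically active gametocytes per well.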

The subject of experiment [4] is ATQ-R5 (cytb F267V, parent 3D7). In words: Cross-resistance EC50 assay, ATQ-R5. Format: cell-based, Plasmodium falciparum. The following applies: Plasmodium falciparum, 3D7; SYBR green 72 hour assay; asynchronized parasites; 96-well or 1536-well format; ATQ-R5. The essentials: as §1

For `COC(=O)c1ccc(C2C3=C(O)CC(c4ccc(F)cc4)CC3=Nc3ccccc3N2C(=O)c2ccccc2)cc1` (centres unmarked) [MMV011438], the 50% effective concentration (EC50) in experiment [1] was 220 nM; in experiment [3] (P. falciparum NF54, 72 h) it was 971 nM; in experiment [4], 0.34 µM. For the same compound, the “Time Length to Obtain Mutants” value in experiment [2] is listed as “LONG (> 125 days)”. Also, the “# of Resistant Strains Generated” value in experiment [2] was 0/3. The “EC50 fold shifts observed” value in experiment [2] was “no shift”. Also, the “EC50 fold shift compared to asexual stage: Stage 5 Gametocyte EC50” value (“EC50 fold shift … Stage 5 Gametocyte EC50” below) in experiment [3] was determined as 2.25.
On to `COc1cc(-c2nc(-c3ccccc3)c(-c3ccccc3)[nH]2)cc(OC)c1O` [MMV020750], for which the EC50 in experiment [1] is 919 nM; in experiment [3] (P. falciparum NF54, 72 h), above 1250 nM; in experiment [4], 0.873 µM. Also, the “Time Length to Obtain Mutants” value in experiment [2] was “LONG (> 125 days)”. Besides, the “# of Resistant Strains Generated” value in experiment [2] is recorded as 0/3. Further, the “EC50 fold shifts observed” value in experiment [2] was “no shift”. In experiment [3], the “EC50 fold shift … Stage 5 Gametocyte EC50” value is listed as above 3.6.
For `Nc1ccc(-c2nc3cc(Cc4ccc5[nH]c(-c6ccc(N)cc6)nc5c4)ccc3[nH]2)cc1` [MMV665943], the EC50 in experiment [1] was 416 nM. For the same compound, in experiment [2], the “Time Length to Obtain Mutants” value was “SHORT (0-50 days)”, the “# of Resistant Strains Generated” value was 0/3 and the “EC50 fold shifts observed” value is “no shift”. In experiment [3] (P. falciparum NF54, 72 h), the EC50 was found to be 407 nM. For the same compound, the “EC50 fold shift … Stage 5 Gametocyte EC50” value in experiment [3] amounted to 1.29. Further, the EC50 in experiment [4] is 0.042 µM.
`Cl.c1ccc2c(NCCCCCCNc3c4c(nc5ccccc35)CCCC4)c3c(nc2c1)CCCC3` [MMV019555]: the EC50 in experiment [1] is 230 nM; in experiment [3] (NF54, 72 h), 451 nM; in experiment [4], 0.086 µM. Moreover, the “Time Length to Obtain Mutants” value in experiment [2] is given as “LONG (> 125 days)”. Further, the “# of Resistant Strains Generated” value in experiment [2] is listed as 0/3. For the same compound, in experiment [2], the “EC50 fold shifts observed” value is on record as “no shift”.
For `Cc1cc(Nc2ccc(OCc3ccccc3)cc2)nc2cc(O)ccc12` [MMV007181], the EC50 in experiment [1] turned out to be 105 nM. In addition, in experiment [2], the “Time Length to Obtain Mutants” value is given as “LONG (> 125 days)”, the “# of Resistant Strains Generated” value is listed as 0/3 and the “EC50 fold shifts observed” value is recorded as “no shift”. Further, the EC50 in experiment [3] (P. falciparum NF54, 72 h) stood at 805 nM. Further, the “EC50 fold shift … Stage 5 Gametocyte EC50” value in experiment [3] was found to be 2.33. Besides, in experiment [4], the EC50 turned out to be 0.088 µM.
Take `Cc1ccc(Cn2c(N3CCC(C(=O)NCc4cccs4)CC3)nc3ccccc32)cc1` [MMV007564]: the concentration for a half-maximal effect (EC50) in experiment [1] was found to be 416 nM; in experiment [3] (P. falciparum NF54, 72 h), 2210 nM; in experiment [4], 1.33 µM. For the same compound, in experiment [2], the “Time Length to Obtain Mutants” value is “SHORT (0-50 days)”. Besides, the “# of Resistant Strains Generated” value in experiment [2] is listed as 3/3. Also, the “EC50 fold shifts observed” value in experiment [2] is 7-12x. The “EC50 fold shift … Stage 5 Gametocyte EC50” value in experiment [3] came to 3.81.
